In ChEMBL document CHEMBL1811889, “Quinoline-4-methyl esters as human nonpancreatic secretory phospholipase A₂ inhibitors” (Bioorg Med Chem, 2011):

target: T1, Phospholipase A2, membrane associated (Homo sapiens, UniProt P14555); experiment: Inhibition of human non-pancreatic sPLA2 using 1,2-dimyristoyl-sn-glycero-3-phosphocholine substrate after 5 mins by continuous fluorescence assay; settings: not given
T1 sequence (P14555 whole entry): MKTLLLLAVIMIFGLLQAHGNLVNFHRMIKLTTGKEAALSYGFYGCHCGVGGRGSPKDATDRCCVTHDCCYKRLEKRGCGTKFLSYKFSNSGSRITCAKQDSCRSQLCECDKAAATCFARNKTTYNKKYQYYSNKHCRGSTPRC

Structure (SMILES)	IC50
COC(=O)c1c2c(nc3ccc(F)cc13)CCCC2	Not Active
CCCCCOc1ccc(-c2cc(C(=O)OC)c3cc(OC)ccc3n2)cc1	Not Active
CCCCCCOc1ccc(-c2cc(C(=O)OC)c3cc(OC)ccc3n2)cc1	Not Active

The next lines start with the values.

IC50	Structure (SMILES)
Not Active	COC(=O)c1c2c(nc3ccc(Cl)cc13)CCCC2
Not Active	COC(=O)c1c2c(nc3ccccc13)CCCC2

same assay, conditions: read-out: IC50

Structure (SMILES)	IC50
COC(=O)c1cc(CCc2ccccc2)nc2ccc(OC)cc12	1.5 µM
COC(=O)c1cc(-c2ccc(OC)cc2)nc2ccc(Cl)cc12	8.1 µM
COc1ccc2c(c1)c(CC(N)=O)c(C)n2Cc1ccccc1	1 µM
COC(=O)c1c(Cc2ccccc2)c(C)nc2ccc(OC)cc12	34 µM
COC(=O)c1cc(-c2ccc(OC)cc2)nc2ccc(OC)cc12	15 µM
COC(=O)c1cc(Cc2ccccc2OC)nc2ccc(F)cc12	2.3 µM
COC(=O)c1cc(-c2ccc(OC)cc2)nc2ccc(F)cc12	6 µM
CCCCOc1ccc(-c2cc(C(=O)OC)c3ccccc3n2)cc1	44 µM

More lines, now with the values ahead:

IC50	Structure (SMILES)
27 µM	CCCOc1ccc(-c2cc(C(=O)OC)c3cc(OC)ccc3n2)cc1
2.9 µM	COC(=O)c1c(-c2ccccc2)c(C)nc2ccc(Cl)cc12
57 µM	CCCCOc1ccc(-c2cc(C(=O)OC)c3cc(OC)ccc3n2)cc1
12 µM	COC(=O)c1cc(CCc2ccccc2)nc2ccc(F)cc12
2.8 µM	COC(=O)c1c(Cc2ccccc2)c(C)nc2ccc(Cl)cc12
16 µM	COC(=O)c1c(Cc2ccccc2)c(C)nc2ccc(F)cc12
1.8 µM	COC(=O)c1cc(CCc2ccccc2)nc2ccc(Cl)cc12
2 µM	COC(=O)c1cc(-c2ccccc2)nc2ccc(OC)cc12
